Results from article PMC11492426, “Design, synthesis, and biological evaluation of novel quinoline-based EGFR/HER-2 dual-target inhibitors as potential anti-tumor agents” (RSC Advances, 2024).

How the values were obtained:
Bax = Bax activation assay in MCF-7 cells; type: cell-based, human; conditions: for Bax Conc.: treated at IC50 values; for Bax Fold change: versus untreated control
Procedure: This lysate was diluted in Standard Diluent Buffer over the range of the assay and measured for human active caspase-8 content. (Cells are Plated in a density of 1.2 – 1.8 × 10,000 cells/well in a volume of 100µl complete growth medium + 100 ul of the tested compound per well in a 96-well plate for 24 hours before the enzyme assay for […].). […]
4.2.7. Bax activation assay
Bring all reagents, except the human Bax-α Standard, to room temperature for at least 30 minutes prior to opening. The human Bax-α Standard solution should not be left at room temperature for more than 10 minutes. All standards, controls and samples should be run in duplicate. Refer to the Assay Layout Sheet to determine the number of wells to be used and put any remaining wells with the desiccant back into the pouch and seal the ziploc. Store unused wells at 4 °C. Pipet 100 μL of Assay Buffer into the S0 (0 pg/mL standard) wells. Pipet 100 μL of Standards #1 through #6 into the appropriate wells. Pipet 100 μL of the Samples into the appropriate wells. Tap the plate gently to mix the contents. Seal the plate and incubate at room temperature on a plate shaker for 1 hour at ~500 rpm. Empty the contents of the wells and wash by adding 400 μL of wash solution to every well.
Repeat the wash 4 more times for a total of 5 washes. After the final wash, empty or aspirate the wells and firmly tap the plate on a lint free paper towel to remove any remaining wash buffer. Pipet 100 μL of yellow Antibody into each well, except the Blank. Seal the plate and incubate at room temperature on a plate shaker for 1 hour at ~500 rpm. Empty the contents of the wells and wash by adding 400 μL of wash solution to every well. Repeat the wash 4 more times for a total of 5 washes.
After the final wash, empty or aspirate the wells and firmly tap the plate on a lint free paper towel to remove any remaining wash buffer. Add 100 μL of blue Conjugate to each well, except the Blank.
Seal the plate and incubate at room temperature on a plate shaker for 30 minutes at ~500 rpm. Empty the contents of the wells and wash by adding 400 μL of wash solution to every well. Repeat the wash 4 more times for a total of 5 washes. After the final wash, empty or aspirate the wells and firmly tap […]
the plate on a lint free paper towel to remove any remaining wash buffer. Pipet 100 μL of Substrate Solution into each well. Incubate for 30 minutes at room temperature on a plate shaker at ~500 rpm.
Pipet 100 μL Stop Solution to each well. Blank the plate reader against the Blank wells, read the optical density at 450 nm. Calculate the average net Optical Density (OD) bound for each standard and sample by subtracting the average Blank OD from the average OD for each standard and sample.
Using linear graph paper, plot the Average Net OD for each standard versus Bax concentration in each standard. Approximate a straight line through the points. The concentration of Bax in the unknowns can be determined by interpolation. […]
Remove plate cover and empty the wells. […]
Incubate the microwell strips at room temperature (18° to 25°C) for about 15 minutes, if

| melting point [°C] | SMILES | Bax Conc. (Bax) [pg/mL] | Bax Fold change (Bax) |
| --- | --- | --- | --- |
| 327 to 329 | O=c1[nH]c2ccccc2c(O)c1/C=N/c1nc(-c2ccncc2)n[nH]1 [Compound 3e, (E)-4-hydroxy-3-(((3-(pyridin-4-yl)-1H-1,2,4-triazol-5-yl)imino)methyl)quinolin-2(1H)-one] | 316 ± 3 | 35 |
|  | O=c1[nH]c2ccccc2c(O)c1C=Nc1ccc(NS(=O)(=O)c2ncccn2)cc1 [Compound 5a, N-(4-(((4-hydroxy-2-oxo-1,2-dihydroquinolin-3-yl)methylene)amino)phenyl) pyrimidine-2-sulfonamide] | 350 ± 3 | 39 |
